The structures appear in SMILES notation. Some results are limits rather than exact numbers.

Holding throughout (format): functional
In test [1] the test system is Rattus norvegicus. Nature of the test: Percent inhibition against carrageenan-induced rat paw edema at 50 mg/kg dose administered perorally; 0-10%. The settings on record: route oral. On the technique in general: Carrageenan injected into the paw causes an acute inflammation.
In test [2] the test system is Rattus norvegicus. In words: Percent inhibition against carrageenan-induced rat paw edema at 50 mg/kg dose administered perorally; 11-20%. As to conditions: route oral.
Test [3] has as its system Rattus norvegicus. In words: Percent inhibition against carrageenan-induced rat paw edema at 50 mg/kg dose administered perorally. The settings on record: route oral.
The test system of test [4] is Rattus norvegicus. Nature of the test: Anti-inflammatory activity following oral administration.
The subject of test [5] is Rattus norvegicus. In words: Analgesic activity by oral administration route.
The subject of test [6] is Rattus norvegicus. In words: Percent inhibition against carrageenan-induced rat paw edema at 50 mg/kg dose administered perorally; 21-30%. The settings on record: route oral.
Test [7] has as its system Rattus norvegicus. Nature of the test: Percent inhibition against carrageenan-induced rat paw edema at 50 mg/kg dose administered perorally; 41-50%. The settings on record: route oral.
Test [8] deals with Rattus norvegicus. In words: Percent inhibition against carrageenan-induced rat paw edema at 50 mg/kg dose administered perorally; 31-40%. The settings on record: route oral.
In test [9] the test system is Rattus norvegicus. In words: Analgesic activity following oral administration at a dose 30 mg/kg.

One may read the inhibition in vivo as the drop in the measured response relative to a control, in per cent. On to `CC(C)C1NC(=O)c2ccccc2N1c1ccccc1` (stereo not drawn), for which the inhibition in vivo at 50 mg/kg in test [1] turned out to be 10%.

In [2], `CC(C)n1c(-c2ccccc2F)nc(=O)c2cc(Cl)ccc21` came in with an inhibition in vivo at 50 mg/kg of 20%.

`CC(C)n1c(-c2ccccc2Br)nc(=O)c2ccccc21` displayed an inhibition in vivo at 50 mg/kg in test [1] of 10%.

Consider `CC(C)c1nc(=O)c2ccccc2n1-c1ccccc1Cl`, for which the inhibition in vivo at 50 mg/kg in [2] worked out at 20%.

On to `CC(C)c1nc(=O)c2ccc(Cl)cc2n1-c1ccccc1`, for which, in test [3], the inhibition in vivo at 50 mg/kg is at least 51%. Further, the results for the ED30 in [4] and in test [5] were 21 mg/kg and 80 mg/kg, respectively.

For the compound `CC(C)n1c(-c2ccc([N+](=O)[O-])cc2)nc(=O)c2ccccc21`, the inhibition in vivo at 50 mg/kg in [1] turned out to be 10%.

In test [6], `CC(C)n1c(-c2ccc(Cl)cc2)nc(=O)c2ccc(Cl)cc21` came in with an inhibition in vivo at 50 mg/kg of 30%.

For `O=c1nc(C2CCC2)n(-c2ccc(Cl)cc2)c2ccccc12`, testing at 50 mg/kg in test [6] gave an inhibition in vivo of 30%.

`CC(C)n1c(-c2ccccc2Cl)nc(=O)c2ccccc21` registered an inhibition in vivo at 50 mg/kg in [7] of 50%.

The compound `Cc1ccc2c(c1)c(=O)nc(C(C)C)n2-c1ccccc1` showed an inhibition in vivo at 50 mg/kg in [6] of 30%.

In test [1], `Cc1ccc2c(=O)nc(-c3ccccc3)n(C(C)C)c2c1` had an inhibition in vivo at 50 mg/kg of 10%.

Turning to `O=c1nc(C2CC2)n(-c2cccc(C(F)(F)F)c2)c2ccccc12`, the inhibition in vivo at 50 mg/kg in test [1] turned out to be 10%.

In test [6], `CC(C)n1c(-c2ccccc2Cl)nc(=O)c2cc(F)ccc21` gave an inhibition in vivo at 50 mg/kg of 30%.

`CC(C)c1nc(=O)c2ccc(N)cc2n1-c1ccccc1`: the inhibition in vivo at 50 mg/kg in [2] worked out at 20%.

Compound `CC(C)n1c(-c2ccc(F)cc2)nc(=O)c2ccccc21` returned an inhibition in vivo at 50 mg/kg in test [7] of 50%.

Take `CC(C)n1c(-c2cccc(Cl)c2)nc(=O)c2ccccc21`: in test [7], the inhibition in vivo at 50 mg/kg worked out at 50%.

For the compound `CC(C)n1c(-c2ccc(N)cc2)nc(=O)c2ccccc21`, at 50 mg/kg the inhibition in vivo in test [1] was 10%.

On to `CC(C)c1nc(=O)c2ccccc2n1-c1cccc(C(F)(F)F)c1`, for which at 50 mg/kg the inhibition in vivo in test [6] was 30%.

In turn, `CC(C)n1c(-c2ccc(F)cc2)nc(=O)c2ccc(Cl)cc21` yielded an inhibition in vivo at 50 mg/kg in test [6] of 30%.

For `Cc1ccc2c(=O)nc(C(C)C)n(-c3ccccc3)c2c1`, at 50 mg/kg the inhibition in vivo in test [6] was 30%.

`COc1ccccc1-c1nc(=O)c2ccccc2n1C(C)C` had an inhibition in vivo at 50 mg/kg in [1] of 10%.

In turn, `Cc1nc(=O)c2ccccc2n1-c1cccc(C(F)(F)F)c1` returned an inhibition in vivo at 50 mg/kg in [1] of 10%.

Compound `O=c1nc(C(F)(F)F)n(-c2ccccc2)c2ccccc12` showed an inhibition in vivo at 50 mg/kg in test [1] of 10%.

Compound `CCOC(=O)C(C)c1nc(=O)c2ccccc2n1-c1ccccc1` (stereo not drawn) registered an inhibition in vivo at 50 mg/kg in [6] of 30%.

With `O=c1nc(C2CCCCCC2)n(-c2ccccc2)c2ccccc12`, testing at 50 mg/kg in [1] gave an inhibition in vivo of 10%.

In [1], `O=c1nc(C2CC2)n(-c2ccc(Cl)cc2)c2ccccc12` yielded an inhibition in vivo at 50 mg/kg of 10%.

Regarding `CC(C)c1nc(=O)c2ccccc2n1-c1ccccc1`, the inhibition in vivo at 50 mg/kg in [8] was found to be 40%. For the same compound, the ED30 was found to be 30 mg/kg in test [4] and 70 mg/kg in [9].

In [6], `CCN(CC)Cc1nc(=O)c2ccccc2n1-c1cccc(C(F)(F)F)c1` came in with an inhibition in vivo at 50 mg/kg of 30%.

With `O=c1nc(CCl)n(-c2cccc(C(F)(F)F)c2)c2ccccc12`, the inhibition in vivo at 50 mg/kg in [1] is 10%.

In turn, `CC(C)n1c(-c2ccccc2)nc(=O)c2cc(Cl)ccc21` registered an inhibition in vivo at 50 mg/kg in [7] of 50%.

`CC(C)n1c(-c2ccc(Cl)cc2)nc(=O)c2cc(Cl)ccc21` came in with an inhibition in vivo at 50 mg/kg in [1] of 10%.

For `CCN(CC)Cc1nc(=O)c2ccccc2n1-c1ccccc1`, in test [1], the inhibition in vivo at 50 mg/kg amounted to 10%.

`Cc1nc(=O)c2ccccc2n1-c1ccccc1` gave an inhibition in vivo at 50 mg/kg in test [1] of 10%.

For the compound `CC(C)c1nc(=O)c2ccccc2n1-c1ccccc1C(=O)O`, testing at 50 mg/kg in [2] gave an inhibition in vivo of 20%.

In turn, `CC(C)c1nc(=O)c2ccccc2n1-c1ccc(CC(=O)O)cc1` came in with an inhibition in vivo at 50 mg/kg in test [2] of 20%.

On to `CC(C)n1c(-c2ccccc2)nc(=O)c2cc(Br)ccc21`, for which, in test [6], testing at 50 mg/kg gave an inhibition in vivo of 30%.

As for `CC(C)c1nc(=O)c2cc(CC(=O)O)ccc2n1-c1ccccc1`, at 50 mg/kg the inhibition in vivo in [1] was 10%.

As to `CC(C)Cc1nc(=O)c2ccccc2n1-c1ccccc1`, the inhibition in vivo at 50 mg/kg in test [6] was 30%.

Turning to `O=c1nc(C2CCC2)n(-c2ccc([N+](=O)[O-])cc2)c2ccccc12`, 50 mg/kg produced 10% inhibition in vivo in test [1].

The record behind these values is ChEMBL document CHEMBL1123144, “Studies on 4(1H)-quinazolinones. 5. Synthesis and antiinflammatory activity of 4(1H)-quinazolinone derivatives” (J Med Chem, 1985).
